# Laboratory results published in PMC7763088, “Impact of Different Lipid Ligands on the Stability and IgE-Binding Capacity of the Lentil Allergen Len c 3” (Biomolecules, 2020).
# Like-named read-outs stand apart in the source and are kept apart here.
# T1: rLen c 3 (Lens culinaris, UniProt A0AT29)
# T1 construct: with the formation of the large fragment 1–80 and the protein without C-terminal Phe93; His8-TrxL (octahistidine-thioredoxin carrier) (N, cleaved yes); made in house; host or cells: Escherichia coli BL-21 (DE3)
# T1 sequence (A0AT29 26-118): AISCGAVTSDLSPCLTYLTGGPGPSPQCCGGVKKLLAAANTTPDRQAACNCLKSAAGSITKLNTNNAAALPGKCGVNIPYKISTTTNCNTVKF
# B1: bovine α-casein: bovine α-casein (Sigma), control substrate for proteolytic digestion (protein, UniProt P02662 16-214; P02663 16-222, looked up)
# Alpha-S1-casein: RPKHPIKHQGLPQEVLNENLLRFFVAPFPEVFGKEKVNELSKDIGSESTEDQAMEDIKQMEAESISSSEEIVPNSVEQKHIQKEDVPSERYLGYLEQLLRLKKYKVPQLEIVPNSAEERLHSMKEGIHAQQKEPMIGVNQELAYFYPELFRQFYQLDAYPSGAWYYVPLGTQYTDAPSFSDIPNPIGSENSEKTTMPLW
# Alpha-S2-casein: KNTMEHVSSSEESIISQETYKQEKNMAINPSKENLCSTFCKEVVRNANEEEYSIGSSSEESAEVATEEVKITVDDKHYQKALNEINQFYQKFPQYLQYLYQGPIVLNPWDQVKRNAVPITPTLNREQLSTSEENSKKTVDMESTEVFTKKTKLTEEEKNRLNFLKKISQRYQKFALPQYLKTVYQHQKAMKPWIQPKTKVIPYVRYL
# Assays:
# rLen c 3 [1] = biological target: T1, rLen c 3; experiment: TNS displacement lipid binding assay; design: species or system lentil; conditions: for IC50: 25 °C, 4 μM TNS, 4 μM rLen c 3; for Change of rLen c 3 affinity for the ligand at acidic pH: pH 2.5 compared with pH 7.4
# Description: The ability of rLen c 3 to bind lipids was assayed by monitoring the displacement of the fluorescent probe TNS. Fluorescence intensity was measured at 25 °C with a F-2710 spectrofluorimeter (Hitachi, Tokyo, Japan), using a […] slit width for both excitation (λ = 320 nm) and emission (λ = 437 nm) and the measurement taken for no longer than 1.5–2 s. After equilibrating TNS (4 μM) in 10 mM phosphate buffer, pH 7.4, or 150 mM sodium chloride, pH 2.5, for 2 min with gentle mixing, the 2 mM of competing ligand was titrated into the 2 mL of 4 μM rLen c 3 solution in 1 μL aliquots. The resulting data were fitted by using a sigmoidal curve-fitting in GraphPad Prism from which the concentration able to displace 50% of the TNS (IC50) was calculated. The dependence of the ligand binding on temperature was performed at 20, 40, 60, 90, and 20 °C, after cooling down as previously described. Temperature was checked with a temperature probe in the cuvette. Each experiment was performed in triplicate, independently.
# rLen c 3 [2] = biological target: T1, rLen c 3; experiment: Effect of lipid ligands on secondary structure and thermostability of rLen c 3 (CD spectroscopy); assay type: physicochemical, lentil; conditions: for Recovery of rLen c 3 structure after cooling down in the presence of ligand: cooling down to 20 °C after 98.5 °C; for Recovery of rLen c 3 structure after cooling down in the presence of ligand / Effect of ligand on rLen c 3 thermostability (resistance to thermal denaturation): pH 7.4, ligand 1 mM; for Effect of ligand on rLen c 3 thermostability (resistance to thermal denaturation): heating up to 98.5 °C
# Description: Circular dichroism spectra were recorded at different temperatures, using a J-810 spectropolarimeter (Jasco, Hachioji, Tokyo, Japan) in a 0.1 cm path length quartz cell (Hellma GmbH & Co. KG, Mullheim, Germany) in the 190–250 nm range, and 0.2, using solutions of rLen c 3 in 10 mM phosphate buffer, pH 7.4, or 150 mM sodium chloride, pH 2.5, simulated gastric fluid, at a concentration of 17 µM. Fatty acids or lysolipids were added at a final concentration of 1 mM. Each experiment was performed twice, independently.
# rLen c 3 [3] = biological target: T1, rLen c 3; experiment: Effect of lipid ligands on gastrointestinal digestion of rLen c 3; assay type: in vitro ADME, lentil; conditions: for Effect of ligand on rLen c 3 degradation rate (proteolytic digestion): gastric then duodenal digestion
# Description: (§1) Simulation of gastrointestinal digestion in vitro was performed as described in [15]. Briefly, gastric digestion was performed for 2 h, using 50 ng of pepsin (p) (Sigma) per 1 μg of rLen c 3 in 0.1 M HCl, pH 2.0 (final protein concentration 0.05 mM). For duodenal digestion, pH of the mixture resulting from gastric digestion was adjusted to 8.0 by addition of ammonium bicarbonate. The obtained mixture was incubated for 24 h at 37 °C with 2.5 ng of trypsin (t) (Promega, Madison, WI, USA) and 10 ng of α-chymotrypsin (ch) (Sigma) per 1 μg of the substrate. Degree of proteolysis was monitored by sodium dodecyl sulfate polyacrylamide gel electrophoresis (SDS-PAGE) under reducing conditions and reversed-phase high-performance liquid chromatography (RP-HPLC) on Luna C18 column (5 μm, 250 × 4.6 mm; Phenomenex, Torrance, CA, USA) at a flow rate of 0.5 mL/min, using a gradient of acetonitrile concentration from 5 to 65% for 45 min in 0.1% trifluoroacetic acid (TFA). Gel analysis was performed, using a densitometer. Electroblotting and subsequent N-terminal protein sequencing were performed as described. The protein was preheated at 100 °C for 30 min to study the effect of temperature on allergen stability. rLen c 3 was preloaded with various lipid ligands (LTP to lipid molar ratio 1:4) for 10 min, in order to investigate their effects on allergen resistance to proteolytic digest. As a control of the influence of lipid ligands on the work of proteolytic enzymes, the same reactions were carried out, using bovine α-casein (Sigma) as a substrate. Some independent experiments were performed in each case.
# rLen c 3 [4] = biological target: T1, rLen c 3; design: method as in PMID 28266846; conditions: among saturated FAs; cited from earlier work
# pepsin = experiment: In vitro gastric digestion (SDS-PAGE); assay type: in vitro ADME; conditions: first 5 min; control substrate
# Description: as §1, with “As a control of the influence of lipid ligands on the work of proteolytic enzymes, the same reactions were carried out, using bovine α-casein (Sigma) as a substrate. Some independent experiments were performed in each case.” left out
# [5] = 10 mM phosphate buffer, pH 7.4, read-out: IC50 (TNS displacement)
# [6] = 150 mM sodium chloride, pH 2.5, read-out: IC50 (TNS displacement)
Molecule,IC50 (rLen c 3 [1]; [5]) [µM],IC50 (rLen c 3 [1]; [6]) [µM],Change of rLen c 3 affinity for the ligand at acidic pH (rLen c 3 [1]),"Ability of rLen c 3 to bind the ligand after heating and cooling down (rLen c 3 [1]; pH 7.4, heated from 20 to 90 °C, then cooled down to 20 °C)",Recovery of rLen c 3 structure after cooling down in the presence of ligand (rLen c 3 [2]),Effect of ligand on rLen c 3 thermostability (resistance to thermal denaturation) (rLen c 3 [2]),"Effect of ligand on secondary structure of rLen c 3 (rLen c 3 [2]; pH 7.4, 20 °C, ligand 1 mM)","Effect of protein preheating before digestion in the presence of ligand on rate of allergen degradation (rLen c 3 [3]; after 4 and 24 h, effect more pronounced with LPPC)",Effect of ligand on rLen c 3 degradation rate (proteolytic digestion) (rLen c 3 [3]; LTP to lipid molar ratio 1:4),"IC50 (rLen c 3 [1]; IC50 (TNS displacement), 10 mM phosphate buffer, pH 7.4) [µM]","IC50 (rLen c 3 [1]; IC50 (TNS displacement), 150 mM sodium chloride, pH 2.5) [µM]",Binding capacity / affinity of Len c 3 for saturated fatty acids (rLen c 3 [4]),"Degradation of rLen c 3 in the presence of ligand (rLen c 3 [3]; 24 h of duodenal digestion, LTP to lipid molar ratio 1:4)",Degradation by pepsin (pepsin)
"CCCCCCCCCCCCCCCC(=O)OC[C@@H](O)COP(=O)([O-])OCC[N+](C)(C)C [LPPC, lyso-palmitoyl phosphatidylcholine]",7.7 ± 0.02,7.3 ± 0.01,slightly increased,not restored,recovery of the protein structure was not observed,a complete denaturation of the protein did not occur even at 98.5 °C,increased the percentage of α-helices,slightly increased,"to a lesser extent, LPPC slowed down the allergen degradation",,,,,
"CCCCCCCCCCCCCCCCCC(=O)O [STE, stearic acid]",,,decreased,,partial protein renaturation,increased the rLen c 3 thermostability,,,slowed down the allergen degradation,4.5 ± 0.1,5.1 ± 0.1,,,
"CCCCCCCCCCCCCCCCCCCC(=O)O [ARA, arachidic C20:0]",,,,,,,,,,,,lower affinity,,
"CCCCCCCC/C=C\CCCCCCCC(=O)O [OLE, oleic acid]",2.4 ± 0.1,2.6 ± 0.1,decreased,,partial protein renaturation,increased the rLen c 3 thermostability,,,more pronounced,,,,~ 55%,
"CCCCCCCCCCCCCCCCCCCCCC(=O)O [BEH, behenic (docosanoic) acid]",5.9 ± 0.2,6.2 ± 0.1,,,,slight protective effect,,,slightly accelerated the allergen proteolysis,,,lower affinity,,
"CCCCCCCCCCCC(=O)O [LAU, lauric acid]",2.1 ± 0.2,2.1 ± 0.01,remained unchanged,,,slight protective effect,,,quickly digested by trypsin/chymotrypsin,,,highest binding capacities,,
B1,,,,,,,,,,,,,,almost completely degraded
